Measurements published in patent EP4653435A1, “PRMT5-MTA INHIBITOR” (Suzhou Puhe Biopharma Co., Ltd., priority 2023, dated 2024).
Like-named read-outs stand apart in the source and are kept apart here.

Key:
[1] = test system: HCT116-MTAPwt; test: 2D antiproliferative assay (CTG cell viability), wild-type cells; format: cell-based; details: Homo sapiens, HCT-116, 7-10 days
Description: (§1) HCT116 wild-type and MTAP-deficient cells were cultured in McCoy's 5A medium containing 10% FBS and 1% penicillin-streptomycin, and cultured in a 37°C, 5% CO2 constant temperature incubator. 40 µL of cell suspension was introduced into each well of a 384-well microplate. 40 nL of different concentrations of test compounds were added to each well using an Echo, before culturing in a 37°C, 5% CO2 constant temperature incubator for 7-10 days. 40 µL of CTG solution (Promega, Cat No. G7573) was added to each well and incubated in a 37°C, 5% CO2 constant temperature incubator for 30 minutes in the dark.

[2] = test system: HCT116-MTAPdel; test: 2D antiproliferative assay (CTG cell viability), MTAP-deficient cells; format: cell-based; details: for IC50: Homo sapiens, HCT-116, HCT116 MTAP-deficient cells, 7-10 days, CTG, read-out: HCT116-MTAPdel/IC50/nM; for HCT116WT IMTAPdel selectivity: ratio IC50 wild type / MTAPdel, antiproliferation
Description: as §1

[3] = Liver microsomal stability assay, human
Description: (§5) The compounds to be tested were co-incubated with liver microsomes of different species with or without the addition of NADPH. The final concentration of the test compounds in the test system was 1 µM, the final concentration of NADPH was 1 mM, and the final concentration of liver microsomes was 0.5 mg/mL.

[4] = Membrane permeability: Caco-2 assay; format: in vitro ADME; details: human; for Papp A→B / Papp B→A: Caco-2, apical pH 6.5, basolateral pH 7.4
Description: The membrane permeability of the molecules of the invention was evaluated. […] Efflux Ratio = Papp(B−A) /Papp(A−B) [formula]

[5] = test system: SDMA/HCT116-MTAPwt; test: In-cell arginine symmetric dimethylation inhibition (In-cell western, ICW), wild-type cells; format: cell-based; details: Homo sapiens, HCT-116, 96 hours
Description: (§2) 60 nL of different concentrations of compounds were added to each well using an Echo, and incubated at 37°C, 5% CO2 for 96 hours.
(§3) Next, 50 µL of 4% paraformaldehyde solution was added to each well and incubated at room temperature for 20 minutes to fix the cells. The solution in the wells was removed, and each well was rinsed four times with PBS solution containing 0.1% Tween 20 (PBST). To each well was then added 30 µL of ice-cold methanol. After standing at -20°C for 10 minutes, the methanol was removed and the wells washed four times with PBST. 30 µL of Odyssey blocking solution containing 0.5% Tween 20 was added to each well and shaken for 2 hours at room temperature. The blocking solution was removed and 30 µL of primary antibody (Symmetric Di-Methyl Arginine Motif [sdma-RG] MultiMab™ Rabbit mAb mix) diluted at 1:500 in Odyssey blocking solution containing 0.5% Tween 20 was added to each well. The plates were incubated overnight at 4°C, before removing the primary antibody and rinsing each well four times with PBST, 5 minutes per rinse. Secondary antibody (goat anti-rabbit IRDye 800CW, 1:800) and nuclear stain (DRAQ5, 1:10000) diluted in Odyssey blocking solution containing 0.5% Tween 20 were then added to each well before incubating at room temperature for 2 hours in the dark. The secondary antibody was removed, and the wells rinsed four times with PBST.
(§4) The sdme-RG and DRAQ5 signals were scanned at 800 nm and 700 nm respectively on a Li-Cor Odyssey instrument and the signal values recorded. The sdme-RG/DRAQ5 ratio was used to calculate the percentage inhibition of arginine symmetric dimethylation (SDMA), and the IC50 value calculated using GraphPad Prism software.

[6] = test system: SDMA/HCT116-MTAPdel; test: In-cell arginine symmetric dimethylation inhibition (In-cell western, ICW), MTAP-deficient cells; format: cell-based; details: Homo sapiens, HCT-116; HCT116 MTAP-deficient cells, 96 hours
Description: as §2, §3, §4

[7] = Liver microsomal stability assay, mouse; format: in vitro ADME; details: mouse liver microsomes 0.5 mg/mL, compound 1 µM, NADPH 1 mM, 60 minute
Description: as §5

[8] = Mouse pharmacokinetics testing; format: in vivo, CD1 female mice; details: CD1 female mice; for AUC(0-t): read-out: AUC0-24; for half-life: read-out: T1/2 (converted)
Description: CD1 female mice were used as test animals and administered the compounds orally/intravenously (oral dosage was 10 mg/kg and intravenous dosage was 2 mg/kg). Test protocol: Each oral and intravenous group consisted of three mice. […] Plasma drug concentrations after oral and intravenous administration were determined by LC/MS/MS, and the collected data analyzed using AB Sciex QTRAP 6500 software.

Compound | IC50 [1] [nM] | IC50 [2] [nM] | Papp A→B [4] [nm/s] | Papp B→A [4] [nm/s] | IC50 [5] [nM] | IC50 [6] [nM] | HCT116WT IMTAPdel selectivity [2] | also measured
C[C@@H]1CC[C@@H](c2ccc3scnc3c2)N(C(=O)C(=O)Nc2cnc(N)c3c2cnn3C)C1 (racemic) [Compound P3] | 827 | 13 | 26.6 | 342 |  |  |  | CLint scaled at 1 h, 1 µM ([3]; liver microsomes): 1.43 L/h/kg
Cc1cc2cc(C(=O)N(Cc3ccc(C(F)(F)F)cn3)[C@H](C)c3ncccn3)ccc2nc1N [AM9747, reference compound] | 237 | 7 |  |  | 332 | 0.6 |  | 
C[C@H](c1ncccn1)N(Cc1ccc(C(F)(F)F)cn1)C(=O)C(=O)Nc1cnc(N)c2c1cnn2C [Compound P1] | 196 | 9 |  |  |  |  | 22 | CLint scaled at 1 h, 1 µM [7]: 10.6 L/h/kg; CLint scaled at 1 h, 1 µM ([3]; microsomes): 1.08 L/h/kg
CN(C(=O)C(=O)Nc1cnc(N)c2c1cnn2C)C1COc2cc(C(F)(F)F)ccc21 (stereo not shown) [Compound P2] | 2680 | 32 | 135 | 205 |  |  | 84 | CLint scaled at 1 µM ([3]; liver microsomes): 0.78 L/h/kg; efflux ratio ([4]; Caco-2, Efflux Ratio = Papp(B-A)/Papp(A-B)): 1.5
C[C@H]1CC[C@H](c2ccc3scnc3c2)N(C(=O)C(=O)Nc2cnc(N)c3c2cnn3C)C1 [Compound P3b] | 275 | 2 |  |  | 578 | 0.6 |  | F ([8]; PO (10 mg/kg) vs IV (2 mg/kg)): 31%; AUC(0-t) ([8]; mouse, IV (2 mg/kg), plasma): 0.383 µg·h/mL; C0 ([8]; mouse, IV (2 mg/kg), plasma, read-out: C0): 1.65 µg/mL; clearance ([8]; mouse, IV (2 mg/kg), plasma, read-out: Cl): 5.2 L/h/kg; half-life ([8]; mouse, IV (2 mg/kg), plasma): 19.2 min; AUC(0-t) ([8]; mouse, PO (10 mg/kg), plasma): 0.586 µg·h/mL; Cmax ([8]; mouse, PO (10 mg/kg), plasma, read-out: Cmax): 0.883 µg/mL; half-life ([8]; mouse, PO (10 mg/kg), plasma): 66 min; Tmax ([8]; mouse, PO (10 mg/kg), plasma, read-out: Tmax): 15 min
